Structures are written as SMILES. Read-outs that look alike come from different tables or passages of the source. Some results are limits rather than exact numbers.

For the assay, the target named is T1, Recombinant human BACE-1 (Homo sapiens, UniProt P56817).
T1 construct: purchased R&D Systems
The assay can be described thus: Assay of β-secretase-inhibiting activity.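 Further: substrate is a peptide carrying biotin and europium cryptate, after the enzyme reaction, Streptavidin-XL665 is added and incubated 1 h at 30 °C before fluorescence reading.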 The following applies: Recombinant human BACE-1 7.4 nM, substrate peptide 18 nM, pH 5.0, 30° C., 3 hours. Type of assay: biochemical.

Setting [1] is: time-resolved fluorescence ratio 665/620, read-out: IC50 values (50% inhibitory concentration against the enzymatic activity).

T1 sequence (P56817 46-501): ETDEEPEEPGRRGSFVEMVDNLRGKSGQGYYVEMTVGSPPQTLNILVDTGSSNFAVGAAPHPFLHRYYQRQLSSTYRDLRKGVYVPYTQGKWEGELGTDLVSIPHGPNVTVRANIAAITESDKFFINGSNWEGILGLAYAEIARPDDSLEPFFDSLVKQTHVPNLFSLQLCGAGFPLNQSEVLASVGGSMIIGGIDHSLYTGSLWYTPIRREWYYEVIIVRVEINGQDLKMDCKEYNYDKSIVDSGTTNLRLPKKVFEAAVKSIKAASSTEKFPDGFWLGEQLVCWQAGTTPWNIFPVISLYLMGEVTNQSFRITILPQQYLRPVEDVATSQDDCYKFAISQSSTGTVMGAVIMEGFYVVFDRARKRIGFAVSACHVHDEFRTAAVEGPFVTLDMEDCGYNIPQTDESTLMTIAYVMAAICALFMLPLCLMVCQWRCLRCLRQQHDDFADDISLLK

For `CC#CCOc1cnc(C(=O)Nc2cc(F)c(F)c(C3(C)CCSC(N)=N3)c2)cn1` (stereo not drawn) [Compound 145], the IC50 under setting [1] was not above 1 µM.

Take `COc1cnc(C(=O)Nc2ccc(F)c([C@]3(C)CCSC(N)=N3)c2)c(C)c1` [Compound 602]: the IC50 under setting [1] was not above 1 µM.

For the compound `Cc1csc(C(=O)Nc2cncc([C@]3(C)CCSC(N)=N3)c2)c1` [Compound 486], under setting [1], the IC50 was not above 1 µM.

Take `Cc1nnsc1C(=O)Nc1ccc(F)c([C@]2(C)CCSC(N)=N2)c1` [Compound 481]: the IC50 (Table 140, read-out: IC50) came out at 0.05 µM.

For the compound `C[C@@]1(c2cc(NC(=O)c3cc4ccccc4s3)ccc2F)CCSC(N)=N1` [Compound 545], the IC50 under setting [1] is not above 1 µM.

Consider `COc1cnc(C(=O)Nc2ccnc([C@]3(C)CCSC(N)=N3)c2)c(N)n1` [Compound 691], for which the IC50 under setting [1] was not above 1 µM.

Take `C#CCOc1cnc(C(=O)Nc2cncc([C@]3(C)CC(C)(C)SC(N)=N3)c2)cn1` [Compound 561]: the IC50 under setting [1] is not above 1 µM.

As for `C[C@@]1(c2cc(NC(=O)c3cnc(NCC#N)cn3)ccc2F)CCSC(N)=N1` [Compound 701], under setting [1], the IC50 is not above 1 µM.

With `C[C@@]1(c2cc(NC(=O)c3cnc(-c4ccsc4)cn3)ccc2F)CCSC(N)=N1` [Compound 537], the IC50 (Table 140, read-out: IC50) was 0.02 µM.

As for `C[C@@]1(c2cccc(NC(=O)c3ccc(Cl)cn3)n2)CCSC(N)=N1` [Compound 599], the IC50 (Table 140, read-out: IC50) worked out at 0.03 µM.

As to `CC#CCNc1cnc(C(=O)Nc2cccc([C@]3(C)CCSC(N)=N3)c2)cn1` [Compound 123], the IC50 under setting [1] was not above 1 µM.

With `CC1(C)C[C@@](C)(c2cncc(NC(=O)c3ncc(C(F)(F)F)cc3Cl)c2)N=C(N)S1` [Compound 575], the IC50 under setting [1] was not above 1 µM.

For the compound `Cc1cc(C(=O)Nc2cncc([C@]3(C)CCSC(N)=N3)c2)n(C)n1` [Compound 476], the IC50 under setting [1] is not above 1 µM.

For the compound `Cc1cnc(C(=O)Nc2cccc([C@]3(C)CCSC(N)=N3)c2)cn1` [Compound 563], the IC50 (Table 140, read-out: IC50) came out at 0.02 µM.

Regarding `CC#CCOc1cnc(C(=O)Nc2ccc(C)c(C3(C)CCSC(N)=N3)c2)cn1` (stereo not drawn) [Compound 142], under setting [1], the IC50 was not above 1 µM.

Consider `Cc1ccc(C(=O)Nc2cncc([C@]3(C)CCSC(N)=N3)c2)s1` [Compound 485], for which, under setting [1], the IC50 was not above 1 µM.

As for `CC1(C)C[C@@](C)(c2cc(NC(=O)c3ncc(Cl)cc3Cl)ccn2)N=C(N)S1` [Compound 686], the IC50 under setting [1] is not above 1 µM.

Take `CCc1cnc(C(=O)Nc2cccc([C@]3(C)CCSC(N)=N3)c2)cn1` [Compound 63]: the IC50 under setting [1] is not above 1 µM.

In the case of `CN(C)CC#CCOc1ccc(C(=O)Nc2ccc(F)c([C@]3(C)CCSC(N)=N3)c2)nc1` [Compound 570], the IC50 under setting [1] is not above 1 µM.

`C[C@@]1(c2cncc(NC(=O)c3ncc(C(F)(F)F)cc3F)c2)CCSC(N)=N1` [Compound 646]: the IC50 under setting [1] was not above 1 µM.

Regarding `C[C@@]1(c2cccc(NC(=O)C#Cc3ccccc3)c2)CCSC(N)=N1` [Compound 64], the IC50 under setting [1] was not above 1 µM.

Regarding `COc1cc(C(=O)Nc2cccc([C@]3(C)CCSC(N)=N3)c2)n(C)n1` [Compound 18], the IC50 under setting [1] was not above 1 µM.

Take `CC#CCOc1cnc(C(=O)Nc2cccc(C3CCSC(N)=N3)c2)cn1` (stereo not drawn) [Compound 107]: the IC50 under setting [1] is not above 1 µM.

As to `COCC#Cc1cnc(C(=O)Nc2ccc(F)c([C@]3(C)CCSC(N)=N3)c2)cn1` [Compound 116], under setting [1], the IC50 was not above 1 µM.

On to `CCCOc1cnc(C(=O)Nc2cccc([C@]3(C)CCSC(N)=N3)c2)cn1` [Compound 72], for which the IC50 (Table 139, read-out: IC50) worked out at 0.11 µM.

For `Cc1nc(C(=O)Nc2ccnc([C@]3(C)CCSC(N)=N3)c2)co1` [Compound 612], the IC50 under setting [1] is not above 1 µM.

Take `C[C@@]1(c2cncc(NC(=O)c3ncc(C(F)(F)F)cc3Cl)c2)CCSC(N)=N1` [Compound 574]: the IC50 under setting [1] is not above 1 µM.

`C[C@@]1(c2cc(NC(=O)c3ccc(Br)s3)ccc2F)CCSC(N)=N1` [Compound 41]: the IC50 (Table 139, read-out: IC50) stood at 0.15 µM.

As to `C[C@@]1(c2cc(NC(=O)c3ccc(OCC#CCCl)cn3)ccc2F)CCSC(N)=N1` [Compound 573], the IC50 under setting [1] is not above 1 µM.

Regarding `C[C@@]1(c2ccnc(NC(=O)c3ccc(Cl)cn3)c2)CCSC(N)=N1` [Compound 598], the IC50 (Table 140, read-out: IC50) stood at 0.03 µM.

For the compound `CC1(C)C[C@@](C)(c2cc(NC(=O)c3ccc(C#N)cn3)ccn2)N=C(N)S1` [Compound 696], under setting [1], the IC50 was not above 1 µM.

`CCc1nc(C(=O)Nc2ccc(F)c([C@]3(C)CCSC(N)=N3)c2)co1` [Compound 670]: the IC50 under setting [1] was not above 1 µM.

As for `C[C@@]1(c2cc(NC(=O)c3ncc(Cl)cc3Cl)ccn2)CCSC(N)=N1` [Compound 677], under setting [1], the IC50 was not above 1 µM.

`C#CCOc1cnc(C(=O)Nc2ccc(F)c([C@]3(C)CC(C)(C)SC(N)=N3)c2)cn1` [Compound 692]: the IC50 under setting [1] was not above 1 µM.

Regarding `COc1cnc(C(=O)Nc2ccc(F)c([C@]3(C)CC(C)(C)SC(N)=N3)c2)cn1` [Compound 600], the IC50 under setting [1] was not above 1 µM.

Regarding `Cc1nc(C)c(C(=O)Nc2ccc(F)c([C@]3(C)CCSC(N)=N3)c2)s1` [Compound 12], the IC50 (Table 139, read-out: IC50) turned out to be 0.16 µM.

As for `COC/C=C\c1cnc(C(=O)Nc2ccc(F)c([C@]3(C)CCSC(N)=N3)c2)cn1` [Compound 117], the IC50 under setting [1] was not above 1 µM.

As for `CCN1N=C(C(=O)Nc2ccc(F)c([C@]3(C)CCSC(N)=N3)c2)CCC1=O` [Compound 477], under setting [1], the IC50 is not above 1 µM.

In the case of `Cc1cnc(C(=O)Nc2cc(F)c(F)c(C3(C)CCSC(N)=N3)c2)cn1` (stereo not drawn) [Compound 143], the IC50 under setting [1] was not above 1 µM.

Take `Cc1nc(C(=O)Nc2ccc(F)c([C@]3(C)CCSC(N)=N3)c2)co1` [Compound 462]: the IC50 under setting [1] was not above 1 µM.

As to `COc1cnc(C(=O)Nc2cncc([C@]3(C)CCSC(N)=N3)c2)cn1` [Compound 547], the IC50 under setting [1] is not above 1 µM.

For the compound `C[C@@]1(c2cc(NC(=O)c3ccc(Cl)cn3)ccn2)CCSC(N)=N1` [Compound 552], the IC50 under setting [1] was not above 1 µM.

`CCCCc1ccc(C(=O)Nc2ccc(F)c([C@@]3(C)N=C(N)SCC3(F)F)c2)nc1` [Compound 665]: the IC50 (Table 141, read-out: IC50) worked out at 0.87 µM.

`COc1cnc(C(=O)Nc2ccc(F)c([C@@]3(C)N=C(N)SCC3=O)c2)cn1` [Compound 689]: the IC50 (Table 141, read-out: IC50) worked out at 0.04 µM.

Take `Cc1ncsc1C(=O)Nc1ccc(F)c([C@]2(C)CCSC(N)=N2)c1` [Compound 506]: the IC50 under setting [1] was not above 1 µM.

Take `CSc1ccc(C(=O)Nc2cncc([C@]3(C)CCSC(N)=N3)c2)s1` [Compound 493]: under setting [1], the IC50 was not above 1 µM.

Take `COc1cnc(C(=O)Nc2ccc(F)c([C@]3(C)CCSC(N)=N3)c2)c(OC)c1` [Compound 489]: under setting [1], the IC50 was not above 1 µM.

For the compound `COc1cnc(C(=O)Nc2cccc([C@]3(C)CCSC(N)=N3)c2)cn1` [Compound 29], under setting [1], the IC50 is not above 1 µM.

`CC(C)c1nnsc1C(=O)Nc1ccc(F)c(C2(C)CCSC(N)=N2)c1` (stereo not drawn) [Compound 520]: the IC50 under setting [1] is not above 1 µM.

As for `COCc1ccc(C(=O)Nc2ccc(F)c([C@]3(C)CCSC(N)=N3)c2)o1` [Compound 522], under setting [1], the IC50 was not above 1 µM.

Consider `COc1cnc(C(=O)Nc2cncc([C@]3(C)CCSC(N)=N3)c2)c(N)n1` [Compound 555], for which, under setting [1], the IC50 was not above 1 µM.

On to `COCCOc1nccnc1C(=O)Nc1ccc(F)c([C@]2(C)CCSC(N)=N2)c1` [Compound 45], for which the IC50 under setting [1] was not above 1 µM.

Consider `COc1cnc(C(=O)Nc2cncc([C@]3(C)CC(C)(C)SC(N)=N3)c2)c(N)n1` [Compound 558], for which the IC50 under setting [1] was not above 1 µM.

Regarding `C[C@@]1(c2cc(NC(=O)CCc3ccc(O)c(O)c3)ccc2F)CCSC(N)=N1` [Compound 155], for the setting “Table 139, read-out: IC50”, the IC50 came to 5.96 µM.
